Experimental findings from patent US20240165241A1, “TARGETED DELIVERY OF DRUG MOLECULES WITH DRUG LIGANDS CONJUGATED TO RNA NANOPARTICLE MOTION ELEMENTS” (Ohio State Innovation Foundation, priority 2022, published 2024) are described below.

In data set [1] the test system is KB cells. As to the kind of experiment: PI/Annexin V-FITC apoptosis assay. The data set is classed as cell-based. The conditions noted are these: 500 nM, 24 hr. The method, then:
Cell apoptosis effect induced by RNA nanoparticles was evaluated using FITC Annexin V Apoptosis Detection Kit (BD Pharmingen) following manufacturer instructions. Briefly, 5×10^4 KB cells were seeded on a 24-well plate overnight. RNA nanoparticles and free MTX were added into 24-well plate at a final concentration of 500 nM. After a 24 hr incubation at 37° C. in a humidified 5% CO2 environment, cells were trypsinized to single cell suspension, washed with PBS buffer twice, and resuspended in 100 μL 1× Annexin V-FITC binding buffer. Following this 5 μL of Annexin V-FITC and 5 μL of PI were added into each sample and incubated at room temperature for 15 min. The samples were then transferred into flow tubes that contained 200 μL of 1× binding buffer for FACS analysis by FACS Calibur™ flow cytometer within 1 hr. Data were analyzed by FlowJo.

Data set [2] can be described thus: Water solubility of SN38 after conjugation to RNA (absorbance at 366 nm). It is filed as physicochemical. The conditions noted are these: absorbance at 366 nm versus concentration 12.5-800 μM. The method, then:
Three solutions were prepared, RNA-SN38 in DEPC H2O, SN38 in DEPC H2O, and SN38 in DMSO. The absorbance at 366 nm of these three solutions with different concentrations (12.5-800 μM) were measured by NanoDrop 2000 Spectrophotometer (ThermoFisher). […] The picture of RNA-SN38 and SN38 in DEPC H2O at 800 μM were taken for comparison of clarity and turbidity.

In data set [1], `CN(Cc1cnc2nc(N)nc(N)c2n1)c1ccc(C(=O)N[C@@H](CCC(=O)O)C(=O)O)cc1` [MTX, Methotrexate] yielded a cells underwent apoptosis of 69.4%.

`CCc1c2c(nc3ccc(O)cc13)-c1cc3c(c(=O)n1C2)COC(=O)[C@]3(O)CC` [SN38, 7-Ethyl-10-hydroxycamptothecin]: the solubility in water result in data set [2] was “poor water solubility”.
